According to ChEMBL document CHEMBL1201862, “PubChem BioAssay data set” (2004):
The source made the active and inactive calls.

Assays:
[1] = biological target: Glyceraldehyde-3-phosphate dehydrogenase (Homo sapiens, UniProt P04406)
[2] = biological target: T1, Alkaline phosphatase, tissue-nonspecific isozyme (Homo sapiens, UniProt P05186); test: potency against alkaline phosphatase TNAP – biochemical, luminescent, dose response, SAR follow-up (AID 1056)
T1 sequence (P05186 whole entry): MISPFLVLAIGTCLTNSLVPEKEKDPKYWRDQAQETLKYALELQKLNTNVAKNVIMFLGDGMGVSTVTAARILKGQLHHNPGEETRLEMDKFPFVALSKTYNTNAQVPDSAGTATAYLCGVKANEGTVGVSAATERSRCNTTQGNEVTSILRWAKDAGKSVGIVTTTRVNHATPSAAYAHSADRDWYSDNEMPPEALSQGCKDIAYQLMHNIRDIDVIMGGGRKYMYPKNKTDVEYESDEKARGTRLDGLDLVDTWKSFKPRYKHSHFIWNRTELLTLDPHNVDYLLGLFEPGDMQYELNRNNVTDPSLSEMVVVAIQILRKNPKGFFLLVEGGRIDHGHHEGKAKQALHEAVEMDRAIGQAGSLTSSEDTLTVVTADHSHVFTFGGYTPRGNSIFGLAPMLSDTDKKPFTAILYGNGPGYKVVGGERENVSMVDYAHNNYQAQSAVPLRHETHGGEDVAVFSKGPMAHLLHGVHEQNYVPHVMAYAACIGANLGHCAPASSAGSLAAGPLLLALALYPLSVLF

Cytochrome P450 3A4 = Cytochrome P450 3A4 (Homo sapiens, UniProt P08684); settings: Potency;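 note: confirmatory qHTS run detecting inhibitors and substrates of CYP3A4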
Sequence of Cytochrome P450 3A4 (P08684 whole entry): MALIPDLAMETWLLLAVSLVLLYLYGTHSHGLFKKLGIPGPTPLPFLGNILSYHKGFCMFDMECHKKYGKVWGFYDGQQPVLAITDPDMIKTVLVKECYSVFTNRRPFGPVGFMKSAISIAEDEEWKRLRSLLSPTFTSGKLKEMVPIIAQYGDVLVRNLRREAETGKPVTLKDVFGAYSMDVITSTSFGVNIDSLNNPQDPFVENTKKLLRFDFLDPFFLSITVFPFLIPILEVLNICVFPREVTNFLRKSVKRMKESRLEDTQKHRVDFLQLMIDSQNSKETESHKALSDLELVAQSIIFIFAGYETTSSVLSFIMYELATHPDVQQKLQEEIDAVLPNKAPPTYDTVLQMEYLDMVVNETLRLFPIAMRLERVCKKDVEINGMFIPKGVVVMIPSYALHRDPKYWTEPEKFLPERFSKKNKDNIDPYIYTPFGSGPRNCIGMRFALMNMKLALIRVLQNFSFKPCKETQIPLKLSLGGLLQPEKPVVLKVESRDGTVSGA

[3] = biological target: T2, Ubiquitin-conjugating enzyme E2 N (Homo sapiens, UniProt P61088); type: functional;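 note: Dose-response confirmation in a TR-FRET assay detecting UBC13-driven polyubiquitin chain formation, inhibition measured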
T2 sequence (P61088 whole entry): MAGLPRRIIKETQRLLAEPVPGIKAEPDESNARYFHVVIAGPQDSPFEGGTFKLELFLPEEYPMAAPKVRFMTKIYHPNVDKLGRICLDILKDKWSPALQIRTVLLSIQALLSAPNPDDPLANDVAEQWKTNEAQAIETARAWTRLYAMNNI

[4] = THP-1 cell cytotoxicity, dose response, cytotoxicity control for non-replicating M. tuberculosis project (AID 489025); type: functional
cells = type: functional
[5] = HepG2 cell cytotoxicity, dose response, cytotoxicity control for non-replicating M. tuberculosis project (AID 489018); type: functional; settings: Mycobacterium tuberculosis
[6] = biological target: Voltage-dependent T-type calcium channel subunit alpha-1H (Homo sapiens, UniProt O95180); type: functional;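 note: channel activity triggered by adding a high calcium stimulation buffer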
Sequence of Voltage-dependent T-type calcium channel subunit alpha-1H (O95180 whole entry): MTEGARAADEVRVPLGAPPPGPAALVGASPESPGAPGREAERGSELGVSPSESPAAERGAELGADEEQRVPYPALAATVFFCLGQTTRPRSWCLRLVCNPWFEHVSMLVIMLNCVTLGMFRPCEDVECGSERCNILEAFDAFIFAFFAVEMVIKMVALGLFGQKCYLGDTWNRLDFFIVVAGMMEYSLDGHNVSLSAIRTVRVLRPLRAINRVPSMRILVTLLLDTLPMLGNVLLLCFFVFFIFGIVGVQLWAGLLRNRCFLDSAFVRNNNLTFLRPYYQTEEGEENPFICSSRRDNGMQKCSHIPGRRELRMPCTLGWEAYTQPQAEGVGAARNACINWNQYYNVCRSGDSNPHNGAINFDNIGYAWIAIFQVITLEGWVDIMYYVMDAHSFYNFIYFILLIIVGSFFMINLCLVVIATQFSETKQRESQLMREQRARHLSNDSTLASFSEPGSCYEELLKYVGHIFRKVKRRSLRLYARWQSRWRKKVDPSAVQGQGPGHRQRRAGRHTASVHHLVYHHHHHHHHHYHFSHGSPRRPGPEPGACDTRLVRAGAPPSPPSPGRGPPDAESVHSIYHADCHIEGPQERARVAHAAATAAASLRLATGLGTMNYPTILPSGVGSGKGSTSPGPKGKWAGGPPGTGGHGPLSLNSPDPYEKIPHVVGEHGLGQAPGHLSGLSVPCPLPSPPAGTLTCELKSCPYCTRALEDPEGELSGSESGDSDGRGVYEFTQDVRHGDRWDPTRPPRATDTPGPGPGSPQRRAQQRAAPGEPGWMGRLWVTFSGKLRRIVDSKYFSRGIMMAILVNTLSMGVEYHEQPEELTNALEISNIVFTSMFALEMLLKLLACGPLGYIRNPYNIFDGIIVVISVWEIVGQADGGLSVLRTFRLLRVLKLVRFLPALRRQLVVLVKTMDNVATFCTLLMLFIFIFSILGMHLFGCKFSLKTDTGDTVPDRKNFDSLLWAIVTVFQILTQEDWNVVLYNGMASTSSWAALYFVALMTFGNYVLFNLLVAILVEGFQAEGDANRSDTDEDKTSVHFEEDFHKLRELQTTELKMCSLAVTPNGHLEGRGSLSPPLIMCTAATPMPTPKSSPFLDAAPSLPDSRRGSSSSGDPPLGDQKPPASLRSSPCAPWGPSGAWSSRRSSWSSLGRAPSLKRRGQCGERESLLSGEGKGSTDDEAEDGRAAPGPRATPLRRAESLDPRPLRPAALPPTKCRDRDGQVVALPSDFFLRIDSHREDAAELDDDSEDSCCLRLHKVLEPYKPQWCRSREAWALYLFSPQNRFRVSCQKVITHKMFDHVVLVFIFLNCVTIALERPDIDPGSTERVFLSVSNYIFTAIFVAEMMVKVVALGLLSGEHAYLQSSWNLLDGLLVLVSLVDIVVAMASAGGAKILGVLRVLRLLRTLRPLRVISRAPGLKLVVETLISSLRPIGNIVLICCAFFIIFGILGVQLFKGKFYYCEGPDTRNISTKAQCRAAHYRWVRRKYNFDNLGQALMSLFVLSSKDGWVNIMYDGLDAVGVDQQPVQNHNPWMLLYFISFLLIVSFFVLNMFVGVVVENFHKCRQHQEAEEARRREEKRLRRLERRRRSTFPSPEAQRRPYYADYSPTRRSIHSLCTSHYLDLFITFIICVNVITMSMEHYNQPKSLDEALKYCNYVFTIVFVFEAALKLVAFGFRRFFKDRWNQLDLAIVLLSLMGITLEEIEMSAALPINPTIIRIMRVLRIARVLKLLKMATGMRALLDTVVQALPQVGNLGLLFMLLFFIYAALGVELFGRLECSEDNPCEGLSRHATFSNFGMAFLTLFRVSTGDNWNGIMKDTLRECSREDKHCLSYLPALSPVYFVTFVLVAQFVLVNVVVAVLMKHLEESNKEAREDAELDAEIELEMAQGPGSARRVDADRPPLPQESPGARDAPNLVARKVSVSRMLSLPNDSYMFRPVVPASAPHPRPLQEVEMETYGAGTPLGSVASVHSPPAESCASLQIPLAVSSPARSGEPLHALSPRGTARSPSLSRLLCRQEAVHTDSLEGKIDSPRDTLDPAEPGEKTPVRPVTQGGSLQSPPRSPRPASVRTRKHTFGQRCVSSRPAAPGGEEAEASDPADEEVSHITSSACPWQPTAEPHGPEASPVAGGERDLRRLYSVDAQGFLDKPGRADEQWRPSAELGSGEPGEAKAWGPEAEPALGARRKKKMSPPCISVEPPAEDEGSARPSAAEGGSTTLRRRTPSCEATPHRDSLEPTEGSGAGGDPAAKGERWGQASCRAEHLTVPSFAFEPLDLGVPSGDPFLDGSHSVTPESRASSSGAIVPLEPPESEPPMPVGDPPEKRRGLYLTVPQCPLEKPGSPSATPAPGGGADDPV

Aminopeptidase N = biological target: T3, Aminopeptidase N (Plasmodium falciparum FcB1/Columbia, UniProt O96935); test: malaria alanyl aminopeptidase activity blockers – biochemical, fluorogenic H-Leu-NHMec substrate, 1536-well (AID 1445); set-up: species or system Plasmodium falciparum 3D7, 3D7
T3 sequence (O96935 whole entry): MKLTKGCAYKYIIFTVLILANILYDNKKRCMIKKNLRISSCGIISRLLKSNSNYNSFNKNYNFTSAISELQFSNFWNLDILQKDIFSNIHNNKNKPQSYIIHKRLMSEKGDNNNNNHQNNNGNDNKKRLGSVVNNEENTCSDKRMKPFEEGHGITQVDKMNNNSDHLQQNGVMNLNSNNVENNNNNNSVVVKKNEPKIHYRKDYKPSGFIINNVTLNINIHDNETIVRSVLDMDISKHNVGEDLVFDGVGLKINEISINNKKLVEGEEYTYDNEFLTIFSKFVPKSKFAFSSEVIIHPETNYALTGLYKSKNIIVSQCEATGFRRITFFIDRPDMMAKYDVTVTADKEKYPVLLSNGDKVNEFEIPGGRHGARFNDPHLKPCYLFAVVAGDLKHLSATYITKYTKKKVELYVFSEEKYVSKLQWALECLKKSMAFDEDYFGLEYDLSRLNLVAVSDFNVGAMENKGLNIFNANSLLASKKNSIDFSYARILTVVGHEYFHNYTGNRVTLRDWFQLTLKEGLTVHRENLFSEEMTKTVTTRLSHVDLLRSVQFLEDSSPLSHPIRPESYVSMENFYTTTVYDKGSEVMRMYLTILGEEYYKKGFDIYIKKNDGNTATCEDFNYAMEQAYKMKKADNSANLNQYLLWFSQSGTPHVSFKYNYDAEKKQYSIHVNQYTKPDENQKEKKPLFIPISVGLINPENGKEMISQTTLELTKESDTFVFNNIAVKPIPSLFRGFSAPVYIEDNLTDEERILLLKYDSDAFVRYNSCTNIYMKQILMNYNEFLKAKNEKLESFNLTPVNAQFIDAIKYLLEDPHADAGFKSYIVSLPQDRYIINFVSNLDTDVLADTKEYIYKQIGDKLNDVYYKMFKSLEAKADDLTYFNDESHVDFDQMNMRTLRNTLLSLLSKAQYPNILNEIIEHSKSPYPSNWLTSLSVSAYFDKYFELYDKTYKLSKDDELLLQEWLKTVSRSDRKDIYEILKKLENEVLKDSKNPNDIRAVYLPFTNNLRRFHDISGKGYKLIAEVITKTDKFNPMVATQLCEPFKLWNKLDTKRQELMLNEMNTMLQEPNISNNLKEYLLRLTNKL

HEK293 [7] = test: cells; type: functional, cell-based; settings: Homo sapiens
HEK293 [8] = test: inhibition of NOD1-driven NF-kB reporter – cell-based, luminescence, uHTS, primary screen (AID 1578); type: functional; settings: Homo sapiens
HEK293 [9] = test: NOD2 signaling inhibitors in MDP-stimulated cells, cell-based, uHTS, luminescence (AID 2001); type: functional; settings: Homo sapiens
HEK293 [10] = test: cells; type: functional, cell-based; settings: Homo sapiens; remark: listed apart in the source
[11] = biological target: T4, Replicative DNA helicase DnaB (Mycobacterium tuberculosis, UniProt P9WMR3); test: DnaB intein splicing inhibitors, dose response, biochemical, cell-free fluorescence (AID 449749); type: functional
T4 sequence (P9WMR3 whole entry): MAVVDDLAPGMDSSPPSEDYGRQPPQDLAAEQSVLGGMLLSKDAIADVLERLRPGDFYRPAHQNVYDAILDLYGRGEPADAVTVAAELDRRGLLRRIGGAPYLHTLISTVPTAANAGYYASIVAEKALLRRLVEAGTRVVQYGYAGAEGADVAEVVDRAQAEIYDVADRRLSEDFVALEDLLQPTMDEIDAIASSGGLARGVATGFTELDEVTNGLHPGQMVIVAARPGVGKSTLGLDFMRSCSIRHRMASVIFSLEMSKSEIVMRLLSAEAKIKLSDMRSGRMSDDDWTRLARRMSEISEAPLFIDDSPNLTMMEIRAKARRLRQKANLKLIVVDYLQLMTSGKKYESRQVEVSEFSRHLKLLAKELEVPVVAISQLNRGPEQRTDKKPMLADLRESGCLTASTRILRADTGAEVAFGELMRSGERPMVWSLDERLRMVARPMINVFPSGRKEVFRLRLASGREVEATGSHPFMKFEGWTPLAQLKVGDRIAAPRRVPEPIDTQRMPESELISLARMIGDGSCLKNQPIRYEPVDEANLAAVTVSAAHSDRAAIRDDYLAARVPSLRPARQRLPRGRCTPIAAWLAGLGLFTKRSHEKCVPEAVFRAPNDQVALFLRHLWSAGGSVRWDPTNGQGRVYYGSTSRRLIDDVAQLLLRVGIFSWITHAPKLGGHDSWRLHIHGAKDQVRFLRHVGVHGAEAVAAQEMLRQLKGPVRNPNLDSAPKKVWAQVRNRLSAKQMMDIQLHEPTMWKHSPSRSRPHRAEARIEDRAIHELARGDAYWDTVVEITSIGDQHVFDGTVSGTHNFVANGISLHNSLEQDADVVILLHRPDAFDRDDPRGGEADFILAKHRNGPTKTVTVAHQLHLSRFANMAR

Protein RecA = biological target: T5, Protein RecA (Mycobacterium tuberculosis, UniProt P9WHJ3); test: Fluorescence Cell-Free Homogeneous Dose Retest to Identify Inhibitors of RecA-Intein Splicing Activity. [Related pubchem assays (depositor defined):AID2097, AID2223, AID489010, AID492950]; type: functional
T5 sequence (P9WHJ3 whole entry): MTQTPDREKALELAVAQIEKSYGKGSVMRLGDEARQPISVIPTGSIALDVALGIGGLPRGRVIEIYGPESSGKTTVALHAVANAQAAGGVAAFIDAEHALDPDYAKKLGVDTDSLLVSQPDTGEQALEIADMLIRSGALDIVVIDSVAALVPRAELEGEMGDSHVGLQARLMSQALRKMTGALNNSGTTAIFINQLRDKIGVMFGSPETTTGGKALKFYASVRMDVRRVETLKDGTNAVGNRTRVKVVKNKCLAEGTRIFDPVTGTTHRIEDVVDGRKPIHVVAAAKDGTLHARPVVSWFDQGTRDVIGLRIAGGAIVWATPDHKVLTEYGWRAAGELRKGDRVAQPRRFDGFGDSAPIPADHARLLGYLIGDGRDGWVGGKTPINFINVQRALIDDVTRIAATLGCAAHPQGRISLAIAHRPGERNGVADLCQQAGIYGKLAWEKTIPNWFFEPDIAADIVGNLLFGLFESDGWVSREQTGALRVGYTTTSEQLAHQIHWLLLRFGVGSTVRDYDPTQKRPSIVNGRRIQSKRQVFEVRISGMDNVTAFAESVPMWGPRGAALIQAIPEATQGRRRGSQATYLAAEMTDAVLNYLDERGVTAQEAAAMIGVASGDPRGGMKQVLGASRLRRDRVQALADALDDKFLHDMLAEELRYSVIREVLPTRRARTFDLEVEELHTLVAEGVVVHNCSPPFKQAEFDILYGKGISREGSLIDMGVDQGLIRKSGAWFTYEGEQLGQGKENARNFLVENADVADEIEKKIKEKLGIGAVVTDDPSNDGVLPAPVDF

[12] = viability loss in CEM21 cells – cell-based, CellTiter-Glo luminescence, cherry-picked, cytotoxicity control for viral fusion inhibitor project, dose response (AID 652042); type: functional;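 note: potency for signal decrease meaning cytotoxicity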
[13] = blockers of HIV-1 envelope-mediated cell-cell fusion – cherry-pick, dose response (AID 652057); type: functional, cell-based
[14] = HIV-1 AD8 envelope cell-cell fusion blockers – cherry-pick, dose response (AID 652062); type: functional, cell-based;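 note: luciferase signal from cell-cell fusion driven by HIV-1 clade B AD8 Env; potency is for inhibitors of fusion seen as a drop in luminescence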

Sequence of Glyceraldehyde-3-phosphate dehydrogenase (P04406 whole entry): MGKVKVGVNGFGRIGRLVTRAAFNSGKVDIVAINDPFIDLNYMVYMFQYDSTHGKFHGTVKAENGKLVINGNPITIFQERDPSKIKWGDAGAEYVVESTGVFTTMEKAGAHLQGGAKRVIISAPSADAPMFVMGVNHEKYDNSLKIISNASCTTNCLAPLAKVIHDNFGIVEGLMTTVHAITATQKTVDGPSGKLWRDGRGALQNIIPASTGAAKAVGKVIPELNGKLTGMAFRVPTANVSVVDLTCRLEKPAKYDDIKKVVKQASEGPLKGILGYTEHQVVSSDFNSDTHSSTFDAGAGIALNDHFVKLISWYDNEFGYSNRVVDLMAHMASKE

With `Cc1ccc(-c2cc(C(=O)O)[nH]n2)cc1` as the compound, how does the IC50 [1] read?
The IC50 was > 100 µM (not active).

And the IC50 [2]?
The IC50 was 8.71 µM (active).

With `COc1ccc(S(=O)(=O)Nc2cccnc2)cc1OC` as the compound, how does the IC50 [1] read?
The IC50 was > 100 µM (not active).

And the IC50 [2]?
Its IC50 is > 100 µM (inactive).

With `CCCN1[C@@H]2C[C@@H](O)CC[C@@H]2C[C@H]1C(=O)OC` as the compound, how does the AC50 (Cytochrome P450 3A4) read?
The AC50 was 25.1 µM (inconclusive).

With `COc1ccc(-c2csc(NC(C)c3nc4cc(C(=O)NCCCO)ccc4n3Cc3ccc(C)cc3)n2)cc1` (stereo unspecified) as the compound, how does the IC50 [3] read?
The IC50 was > 20 µM (inactive).

For `CC(/C=C/c1ccco1)=N\NC(=O)c1cccc(Cl)c1`, which CC50 [4] is on record?
Its CC50 is > 40 µM (active).

And the IC50 (cells)?
The IC50 was 6.09 µM (active).

And the CC50 [5]?
Its CC50 is > 20 µM (active).

Which AC50 (Cytochrome P450 3A4) does the source give for `COc1cc(/C=C/C(=O)c2cccs2)cc(OC)c1OC` here?
Its AC50 is 3.16 µM (inconclusive).

For `c1ccc(-c2cc3c(nc2-c2ccccc2)CCNC3)cc1`, which AC50 (Cytochrome P450 3A4) is on record?
The AC50 was 5.01 µM (inconclusive).

For `Cc1ccc(-n2ncc(C(=O)NCc3ccc4c(c3)OCO4)c2NC(=O)c2ccco2)cc1C`, which EC50 [6] is on record?
Its EC50 is 1.89 µM (active).

Which IC50 (Aminopeptidase N) does the source give for `COc1nc(N=C(N)N)nc2c(C)cccc12` here?
Its IC50 is 22.2 µM (active).

With `COc1ccc(-c2csc(NC(=O)C3=NN(c4ccccc4)C(=O)CC3)n2)cc1` as the compound, how does the IC50 (HEK293 [7]) read?
Its IC50 is 5.51 µM (active).

What about the EC50 (HEK293 [8]) of the same compound?
The EC50 was 15.7 µM (active).

And the IC50 (HEK293 [9])?
Its IC50 is 5.67 µM (inactive).

What about the IC50 (HEK293 [10]) of the same compound?
Its IC50 is 17.5 µM (active).

Which AC50 [11] does the source give for `COc1cc(Br)c(C2C(C#N)=C(N)Oc3[nH]nc(-c4cccnc4)c32)cc1OC` (stereo unspecified) here?
The AC50 was 35 µM (active).

And the EC50 (Protein RecA)?
Its EC50 is 8.6 µM (active).

What about the IC50 (Aminopeptidase N) of the same compound?
Its IC50 is 44.6 µM (active).

For `Cc1cccc(N2CCN(C(=O)CCCSc3nc4ccccc4[nH]3)CC2)c1C`, which AC50 [12] is on record?
Its AC50 is 50.8 µM (active).

What about the EC50 [6] of the same compound?
The EC50 was 5.23 µM (active).

And the AC50 [13]?
The AC50 was 46.1 µM (active).

And the AC50 [14]?
Its AC50 is 12.3 µM (active).

With `C=CCc1ccc(OCC(O)COc2ccc(CC=C)cc2OC)c(OC)c1` as the compound, how does the EC50 [6] read?
Its EC50 is 6.12 µM (active).

Which IC50 [3] does the source give for `COc1ccc(C[C@H]2CN3C(=NC[C@@H]3Cc3ccc(O)cc3)N2C[C@H](C)NC(=O)c2ccc(C)c(Br)c2)cc1` here?
The IC50 was > 20 µM (inactive).

What does the source list for `CN(C(=O)C(C)(C)C)c1ccc(OCC(=O)N2CCc3ccccc3C2)cc1`?
IC50 (HEK293 [7]): 12.9 µM (active); EC50 (HEK293 [8]): 4.6 µM (active); IC50 (HEK293 [9]): 18.1 µM (inactive); IC50 (HEK293 [10]): > 20 µM (inactive)

For `Clc1ccc(/C=N/Nc2nnn[nH]2)cc1`, which IC50 (Aminopeptidase N) is on record?
The IC50 was 92.8 µM (active).
